# B1: BID: positive control BID/MFG vector, a pro-apoptotic protein previously identified in a colorectal carcinoma HT29 negative selection (protein, UniProt P55957 1-195, looked up)
# BH3-interacting domain death …: MDCEVNNGSSLRDECITNLLVFGFLQSCSDNSFRRELDALGHELPVLAPQWEGYDELQTDGNRSSHSRLGRIEADSESQEDIIRNIARHLAQVGDSMDRSIPPGLVNGLALQLRNTSRSEEDRNRDLATALEQLLQAYPRDMEKEKTMLVLALLLAKKVASHTPSLLRDVFHTTVNFINQNLRTYVRSLARNGMD
# modifications: expressed from MFG retroviral vector
# notes: positive control BID/MFG vector, a pro-apoptotic protein previously identified in a colorectal carcinoma HT29 negative selection
# Key:
# WM35 cells = experiment: Nuclear condensation / ethidium homodimer and Syto16 staining, WM35; format: cell-based
# Protocol: (§1) Two cell lines, WM35 and HS294T, were plated out (50,000 cells per well, 24 well plate) and allowed to adhere. After 24 hours, the cells were treated for 4 hours with varying concentrations (5-80 μM) of Cisplatin (cis-platinum (II) diammine dichloride), a well-known chemotherapeutic agent that induces apoptosis. […] Adherent cell populations were then lifted from the solid support by trypsinization, centrifuged (400× g), and resuspended in PBS (0.125 ml). To observe the nuclear morphology and percent cell death in the WM35 and HS294T cell lines, cells from both floater and adherent populations were stained concurrently with Syto16 and ethidium homodimer (125 ul of cell suspension+2.5 ul 62.5uM Sytol6+[…] 10 ug/ml ethidium homodimer, 10 minutes at 37° C.). Ethidium homodimer is a membrane impermeant compound that fluoresces in the 617 nm range when it is intercalated with chromosomal DNA. Thus, in a mixed cell population containing both living and dead/dying cells, only those cells whose membranes have been compromised will stain with ethidium homodimer. In contrast, Syto 16 (Molecular Probes) is a membrane permeant dye that fluoresces in the 518 nm range when associated with chromosomal DNA. Together, these two dyes can be used to observe and distinguish the nuclear morphology in a population containing both living and dead/dying cells.
# HS294T cells = experiment: Nuclear condensation / ethidium homodimer and Syto16 staining, HS294T; format: cell-based
# Protocol: as §1
# WM35 (melanoma) cells = experiment: Caspase-3 fluorescent substrate (Rhodamine 123-YVAD) and PI staining of WM35 floaters; format: cell-based; conditions: Cisplatin 15 μg/ml, floaters collected 18-24 hours after induction
# Protocol: WM35 cells were passed one day prior to induction of apoptosis and incubated for 24 hrs to allow the cells to attach to the substrate. The media was subsequently removed, the remaining adherent cells washed 1× with PBS, and subsequently exposed to Cisplatin (15 μg/ml) in fresh media. Eighteen to twenty-four hours after the induction of apoptosis, the floater cell population was collected, pelleted by centrifugation (400× g), and resuspended at 3×10^6 cells/ml in PBS. Samples were then split into four groups: (I) uninduced minus Rhodamine 123-YVAD (substrate), (2) uninduced plus substrate, (3) induced minus substrate, and (4) induced plus substrate. For samples exposed to Rhodamine 123-YVAD substrate, 50 ul of a pre-warmed (37° C.) cell suspension was combined with 25 ul of a stock substrate solution (Celiprobe). Samples were incubated for 60 minutes at 37° C. and then placed on ice prior to FACS analysis. In addition to caspase-3 staining, a replicate of each sample was stained with propidium iodide to determine the percentage of cells within the population whose membranes had been compromised and the overlap between PI and caspase-3 staining. […] Emission spectra were read at 515-535 nm wavelength using the FLI (PMT2) 525 nm blue filter.
# T47D cells = experiment: Camptothecin kill curve in T47D cells; format: cell-based
# Protocol: Approximately 250,000 cells were seeded into each well of a six well plate. Cells were then grown in media containing camptothecin of varying concentrations (0-10 uM). After 5 days, the number of cells remaining in each of the camptothecin-treated wells was compared with untreated controls. From these experiments, it was determined that camptothecin concentrations ranging from 1-4 nM had no effect on T47D cell number over the course of the 5 days of treatment. […] In order to determine whether this level of treatment is concomitantly increasing the number of floaters in the population, several flasks are seeded with T47D cells and then treated with 1-4 nM concentrations of camptothecin. After a period of three to five days, the media is collected and the number of floater cells are counted and compared to the total number of cells in the flask (floaters+adherents).
# [1] = system: ECR293 cells containing pBIGFII and ecdysone receptor (pVgRXR); experiment: Ecdysone-inducible pBIGFII vector fluorescence in ECR293 cells; format: cell-based; conditions: 5 μM ponesterone A
# Description: As an alternative to the constitutive pCLMFG vector, an inducible construct that can be regulated by ecdysone was constructed as follows. The PmlI/XhoI fragment from pVT324 was inserted into the MCS of the PIND vector (Invitrogen). This product was then digested with BglII, blunt-ended and inserted into a pBabe-K-ras vector (pVT313-based) that had been digested with BamHI/XhoI and blunted (Klenow Fragment). The resulting vector was designated pBabe-Forward-1. The XbaI fragment of pVT324 was then inserted into the compatible site of pBabe-Forward-1. The resulting vector was designated pBIGFII. Vector pBIGFII was subsequently transfected into cells (ECR293, Invitrogen) that contain an endogenous copy of the ecdysone receptor (pVgRXR).
# HuVEC 9F0293 cells = experiment: Time course of detachment and PI staining of HuVEC 9F0293; format: cell-based, Human; conditions: puromycin 2 ug/ml
# Protocol: To determine the time course in which dead and/or dying HuVECs detach from the solid support in response to a cytotoxic agent, 9F0293 cells were plated and subsequently treated with puromycin (2 ug/ml). Both floater and adherent cell populations were then collected at varying times (t=4, 7, 9, 16, 20, and 24 hours) and analyzed to determine (a) the percent PI^+ cells in the floater population and (b) the fraction of cells which became floaters. […] The fraction of floaters that stained with PI (PI^+ population) increased with time.
# HT29 cells = experiment: Induction of apoptosis in HT29 cells carrying pVT324; format: cell-based, human; conditions: after 48 hours of treatment
# Protocol: Cells that are positive for PI uptake may either be necrotic, or be in the late stages of apoptosis. In order to address specifically the question of whether DNA recovered from cells undergoing apoptosis can serve as a good template for PCR, the following experiment was performed. HT29 cells containing a retroviral construct that constitutively expresses GFP (pVT324) were treated with sulindac sulfide to induce apoptosis. […] Apoptotic cells were counted into PCR tubes and PCR was carried out using primers specific for the amplification of the retroviral GFP construct. Live cells from an untreated culture were used as PCR controls. There was no apparent difference in amplification of the GFP product from apoptotic cells when compared to live cells (FIG. 11). Thus DNA recovered from cells undergoing either necrotic or apoptotic cell death can serve as an effective template for PCR amplification and construction of sublibraries.
# HMEC 96C cells = experiment: Floater assay with propidium iodide viability, HMEC 96C; format: cell-based, human; conditions: for Propidium Iodide Staining / Percent Floaters: HMEC 96C
# Protocol: (§2) A floater assay involving primary human mammary cells (HMECs), immortalized and transformed with a minimum number of genetic elements, was performed as follows. Primary pooled HMECs (Biowhittaker/Clonetics) were immortalized and transformed with two methods: 1) Serial introduction and expression of retroviral constructs encoding SV-40 Lg T Ag, human telomerase catalytic subunit hTERT, and activated V12H-ras (method of Hahn, et al, Nature 400: 464-468, 1999) and 2) serial introduction and expression of constructs encoding HPV-16 E6/E7, hTERT and V12H-ras. The lines are designated 96C and 96A, respectively. The retroviral constructs BABE/neomycin/SV-40 Lg T Ag BABE/LNCX/puromycin/hTERT, LXSN/hygromycin/V-12H-Ras and LXSN/neomycin/HPV-16 E6/E7 were utilized.
# (§3) To determine background floater rates, cells were plated to 20% confluency in three 100 mm dishes (100000 cells/dish) and the number of floaters as a percentage of total cells (adherent+floaters) and the viability of floaters ascertained at two, three and four days post-platin . Viability was assessed by measuring propidium iodide uptake. In addition to untreated controls, a transduction control vector pVT 340 (pCLMFG/GFP) and a positive control BID/MFG vector, a pro-apoptotic protein previously identified in a colorectal carcinoma HT29 negative selection, were utilized. Cells were transduced with 30% (v/v) viral supernatants at 95% and 45% rates, respectively.
# HMEC 96A cells = experiment: Floater assay with propidium iodide viability, HMEC 96A; format: cell-based, human; conditions: for Propidium Iodide Staining / Percent Floaters: HMEC 96A
# Protocol: as §2, §3
molecule,measurement,setting,value
"N.N.[Cl-].[Cl-].[Pt+2] [Cisplatin, cis-platinum (II) diammine dichloride]",ethidium homodimer staining of adherent cell population,"WM35 cells; WM35 adherent cells, Cisplatin experiment",< 10%
same,floater cells stained with ethidium homodimer,"WM35 cells; WM35 floaters, Cisplatin treated",45-50%
same,condensed or fragmented nuclei,"WM35 cells; WM35 floaters, higher concentrations of Cisplatin",40-50%
same,ethidium homodimer staining of adherent cell population,"HS294T cells; HS294T adherent cells, Cisplatin experiment",< 10%
same,cells showing condensed or fragmented nuclei,"HS294T cells; HS294T floaters stained with ethidium homodimer, Cisplatin treated",< 20%
same,floater cells stained with ethidium homodimer,"HS294T cells; HS294T floaters, Cisplatin 5-80 μM 4 hours, collected 18-24 hrs later",greater than 50%
same,caspase-3 positive cells among PI-minus floater cells,WM35 (melanoma) cells,94.6%
CC[C@@]1(O)C(=O)OCc2c1cc1n(c2=O)Cc2cc3ccccc3nc2-1 [camptothecin],cell number relative to untreated control,"T47D cells; 10 nM camptothecin, 5 days",roughly one third that found in the untreated control
same,concentration tolerated without adverse effect on cell viability or division,T47D cells; 5 days,up to 4 nM
same,concentrations at which virtually no cells remained adhered to the plate,T47D cells; 5 days,greater than 50 nM
same,concentrations resulting in a decrease in cell number relative to untreated control,T47D cells; 5 days,greater than 4 nM
same,concentrations with no effect on T47D cell number,T47D cells; 5 days of treatment,1 to 4 nM
CC(C)CC[C@@H](O)[C@](C)(O)[C@H]1CC[C@@]2(O)C3=CC(=O)[C@@H]4C[C@@H](O)[C@@H](O)C[C@]4(C)[C@H]3CC[C@]12C [ponesterone A],increase of fluorescence level versus absence of inducer,[1],increases by approximately thirty fold
COc1ccc(C[C@H](N)C(=O)N[C@H]2[C@@H](O)[C@H](n3cnc4c(N(C)C)ncnc43)O[C@@H]2CO)cc1 [puromycin],time course of detachment,HuVEC 9F0293 cells,the majority of HuVECs detached by the 16-hour time point
same,floater cells in the PI+ gate,HuVEC 9F0293 cells; by 20 hours,nearly all
same,cells that became floaters,HuVEC 9F0293 cells; within 24 hours,90-99%
same,PI− versus PI+ floater cells,"HuVEC 9F0293 cells; 4, 7, and 9 hours",near equal numbers
CSc1ccc(/C=C2/C(C)=C(CC(=O)O)c3cc(F)ccc32)cc1 [sulindac sulfide],cell detachment and apoptotic morphology,HT29 cells,the majority of the cells had detached from the dish and showed typical apoptotic morphology
B1,Propidium Iodide Staining,"HMEC 96C cells; Adherent, DAY 3",8.5%
same,Propidium Iodide Staining,"HMEC 96C cells; Adherent, DAY 4",0.5%
same,Percent Floaters,HMEC 96C cells; DAY 2,46%
same,Percent Floaters,HMEC 96C cells; DAY 3,58%
same,Percent Floaters,HMEC 96C cells; DAY 4,7%
same,Propidium Iodide Staining,"HMEC 96C cells; Floaters, DAY 3",81%
same,Propidium Iodide Staining,"HMEC 96C cells; Floaters, DAY 4",70%
same,propidium iodide positive (adherents),"HMEC 96C cells; line 96C, days 3 and 4",0.5-8.5%
same,propidium iodide positive in floaters,"HMEC 96C cells; line 96C, days 3 and 4",70-81%
same,Propidium Iodide Staining,"HMEC 96A cells; Adherent, DAY 3",1.6%
same,Propidium Iodide Staining,"HMEC 96A cells; Adherent, DAY 4",0.4%
same,Percent Floaters,HMEC 96A cells; DAY 2,54%
same,Percent Floaters,HMEC 96A cells; DAY 3,25%
same,Percent Floaters,HMEC 96A cells; DAY 4,8%
same,Propidium Iodide Staining,"HMEC 96A cells; Floaters, DAY 3",72%
same,Propidium Iodide Staining,"HMEC 96A cells; Floaters, DAY 4",45%
same,propidium iodide positive in adherents,"HMEC 96A cells; line 96A, days 3 and 4",0.4-1.6%
same,propidium iodide positive in floaters,"HMEC 96A cells; line 96A, days 3 and 4",45-75%
